Assay [1] has as its system Erysiphe graminis var. hordei. In words: Shoot treatment test/powdery mildew of cereal/protective (leaf-destructive mycosis). In kind it is in vivo. The following applies: 0.025 % by weight active compound in the spray liquor; barley; after 6 days; protective. On the procedure:
To produce a suitable preparation of active compound, 0.25 part by weight of active compound was taken up in 25 parts by weight of dimethylformamide and 0.06 part by weight of alkylaryl polyglycol ether; 975 parts by weight of water were then added. The concentrate was diluted with water to the desired final concentration of the spray liquor.
To test for protective activity, single-leaved young barley plants of the Amsel variety were sprayed with the preparation of active compound until dew-moist. After drying, the barley plants were dusted with spores of Erysiphe graminis var. hordei.
After 6 days' dwell time of the plants at a temperature of 21°-22° C. and 80-90% atmospheric humidity the occurrence of mildew pustules on the plants was evaluated. The degree of infection was expressed as a percentage of the infection of the untreated control plants. 0% denoted no infection and 100% denoted the same degree of infection as in the case of the untreated control.

Assay [2] concerns Puccinia recondita. In words: Shoot treatment test/cereal rust (leaf-destructive mycosis)/protective. In kind it is in vivo. Conditions: 0.025 % by weight active compound in the spray liquor; wheat; after 10 days; protective. On the procedure: To produce a suitable preparation of active compound, 0.25 part by weight of active compound was taken up in 25 parts by weight of dimethylformamide and 0.06 part by weight of alkylaryl polyglycol ether and then 975 parts by weight of water were added. The concentrate was diluted with water to the desired final concentration of the spray liquor.
To test the protective activity, one-leaved young wheat plants of the Michigan Amber variety were inoculated with a uredospore suspension of Puccinia recondita in 0.1% strength aqueous agar. After the spore suspension had dried on, the wheat plants were sprayed with the preparation of active compound until dew-moist and were placed, for incubation, in a greenhouse for 24 hours at about 20° C. and 100% relative atmospheric humidity.
After 10 days' dwell time of the plants at a temperature of 20° C. and 80-90% atmospheric humidity, the occurrence of rust pustules on the plant was evaluated. The degree of infection was expressed as a percentage of the infection of the untreated control plants. 0% denoted no infection and 100% denoted the same degree of infection as in the case of the untreated control.

Assay [3] concerns Podosphaera leucotricha. In words: Podosphaera test (apple)/protective. It is filed as in vivo. Conditions: apple seedlings, 10 days after inoculation, protective. On the procedure:
(§1) Solvent: 4.7 parts by weight of acetone
(§2) Emulsifier: 0.3 part by weight of alkylaryl polyglycol ether
(§3) Water: 95 parts by weight
The amount of active compound required for the desired concentration of the active compound in the spray liquid was mixed with the stated amount of solvent, and the concentrate was diluted with the stated amount of water which contained the stated amount of emulsifier.
Young apple seedlings in the 4-6 leaf stage were sprayed with the spray liquid until dripping wet. The plants remained in a greenhouse for 24 hours at 20° C. and at a relative atmospheric humidity of 70%. They were then inoculated by dusting the conidia of the apple powdery mildew causative organism (Podosphaera leucotricha) and placed in a greenhouse at a temperature of 21°-23° C. and at a relative atmospheric humidity of about 70%.
10 days after the inoculation, the infection of the seedlings was determined. The assessment data were converted to % infection. 0% meant no infection; 100% meant that the plants were completely infected.

Assay [4] relates to Erysiphe cicohiacearum. In words: Erysiphe test (cucumber)/protective. In kind it is in vivo. The following applies: cucumber plants, after 12 days, protective. On the procedure:
as §1, §2, §3
The amount of the active compound required for the desired concentration of active compound in the spray liquid was mixed with the stated amount of solvent and the concentrate was diluted with the stated amount of water containing the stated amount of emulsifier.
Young cucumber plants with about three foliage leaves were sprayed with the spray liquid until dripping wet. The cucumber plants remained in a greenhouse for 24 hours to dry. They were then, for the purpose of inoculation, dusted with conidia of the fungus Erysiphe cicohiacearum. The plants were subsequently placed in a greenhouse at 23°-24° C. and at a relative atmospheric humidity of about 75%.
After 12 days, the infection of the cucumber plants was determined. The assessment data were converted to percent infection. 0% meant no infection; 100% meant that the plants were totally infected.

Assay [5] relates to Trichophyton mentagr. In words: Anti-mycotic in vitro activity, series dilution test. It is filed as cell-based, Trichophyton mentagrophytes. Conditions: read-out: Minimum inhibitory concentration. The procedure: (§4) The in vitro tests were carried out in a series dilution test with germ inocula of an average of 5×10^4 germs/ml of substrate. The nutrient medium was (a) for dermatophytes and moulds: Sabouraud's milieu d'epreuve and (b) for yeasts; meat extract/glucose broth.
(§5) The incubation temperature was 28° C. and the duration of incubation was 24 to 96 hours.

Assay [6] concerns Aspergillus species. Described as above. In kind it is cell-based. The following applies: read-out: Minimum inhibitory concentration. The procedure: as §4, §5
Assay [7] has as its system Candida albicans. Described as above. In kind it is cell-based. The following applies: read-out: Minimum inhibitory concentration. On the procedure:
as §4, §5

Assay [8] deals with Microsporon felineum. The assay is described as above. In kind it is cell-based. Conditions: read-out: Minimum inhibitory concentration. On the procedure: as §4, §5
For assay [9], the system named is Penicillium commune. Described as above. In kind it is cell-based. The following applies: read-out: Minimum inhibitory concentration. On the procedure:
as §4, §5

In assay [10] the test system is Torulopsis glabrata. The assay is described as above. It is filed as cell-based. The following applies: Nakaseomyces glabratus; γ/ml of nutrient medium; 28° C.; 24 to 96 hours; read-out: Minimum inhibitory concentration. The procedure: as §4, §5
[11] abbreviates: γ/ml of nutrient medium, 28° C., 24 to 96 hours.

Converted amounts (≈) assume the structure as drawn. Read-outs that look alike come from different tables or passages of the source.

Consider `CC(C)(C)C(=O)C(Oc1ccc(-c2ccc(Cl)cc2)cc1)n1cncn1` (stereo not shown) [A, reference compound], for which the “Infection in % of the untreated control” value in [1] was found to be 55.0%.
Consider `CC(C)(C)C(=O)C(Oc1ccc(-c2ccccc2)cc1)n1cncn1` (stereo not shown) [B, reference compound], for which, in assay [2], the “Infection in % of the untreated control” value came to 33.8%.
Same read-out and setting: under `CC(C)(C)C(O)C(Oc1ccc(Cl)cc1Cl)n1cncn1` (stereo not shown) [C, reference compound] stands 33.8%.
Consider `Cl.O=C(c1ccc(Cl)cc1Cl)C(Oc1ccc(Cl)cc1)n1cncn1` (stereo not shown) [Compound 2, 1-(4-Chlorophenoxy)-2-(2,4-dichlorophenyl)-1-(1,2,4-triazol-1-yl)-ethan-2-one hydrochloride], for which the entries for the “Infection in % of the untreated control” value in [1] and in assay [2] were 0.0% and 12.5%, respectively. The “Infection in % at an active compound concentration of 0.001%” value (shortened to “Infection in % … of 0.001%”) in [3] stood at 25%. Also, in [4], the “Infection in % at an active compound concentration of 0.00025%” value (“Infection in % … of 0.00025%” for short) is listed as 12%. For the same compound, the MIC in assay [5] (setting [11]) was 4 µg/mL; in assay [6] (setting [11]), over 64 µg/mL; in assay [7] (setting [11]), 32 µg/mL; in assay [8] (setting [11]) it was 32 µg/mL; in assay [9] (setting [11]) it was over 64 µg/mL.
Consider `Cl.OC(c1ccc(Cl)cc1Cl)C(Oc1ccc(Cl)cc1)n1cncn1` (stereo not shown) [Compound 3, 1-(4-chlorophenoxy)-2-(2,4-dichlorophenyl)-1-(1,2,4-triazol-1-yl)-ethan-2-ol hydrochloride], for which the “Infection in % of the untreated control” value in [1] was found to be 7.5%. Besides, the “Infection in % … of 0.001%” value in assay [3] was 0%. Besides, the “Infection in % … of 0.00025%” value in assay [4] is reported as 6%. Also, the MIC is 4 µg/mL in [5] (setting [11]); 64 µg/mL in assay [6] (setting [11]); 8 µg/mL in [7] (setting [11]); 32 µg/mL in assay [8] (setting [11]); over 64 µg/mL in [9] (setting [11]).
Consider `O=C(c1ccc(Cl)cc1Cl)C(Oc1ccc(Cl)cc1Cl)n1cncn1` (stereo not shown) [Compound 4], for which, in assay [1], the “Infection in % of the untreated control” value is recorded as 0.0%.
As to `O=C(c1ccc(Cl)cc1Cl)C(Oc1ccc(-c2ccccc2)cc1)n1cncn1` (stereo not shown) [Compound 5], the “Infection in % of the untreated control” value in assay [2] is given as 10.0%. The MIC was under 1 µg/mL in assay [5] (setting [11]); over 64 µg/mL in assay [6] (setting [11]); 32 µg/mL (≈ 75.4 µM) in assay [7] (setting [11]); over 64 µg/mL in assay [9] (setting [11]); 32 µg/mL (≈ 75.4 µM) in [10].
Take `O=C(c1ccc(Cl)cc1Cl)C(Oc1ccc(-c2ccc(Cl)cc2)cc1)n1cncn1` (stereo not shown) [Compound 6]: the “Infection in % of the untreated control” value in assay [1] is 16.3%.
As for `OC(c1ccc(Cl)cc1Cl)C(Oc1ccc(Cl)cc1Cl)n1cncn1` (stereo not shown) [Compound 14], the “Infection in % of the untreated control” value in assay [1] stood at 0.0%. Further, in [3], the “Infection in % … of 0.001%” value was found to be 0%. Besides, in assay [4], the “Infection in % … of 0.00025%” value was found to be 16%. In addition, the MIC was 4 µg/mL (≈ 9.54 µM) in [5] (setting [11]); 64 µg/mL (≈ 153 µM) in assay [6] (setting [11]); 8 µg/mL (≈ 19.1 µM) in assay [7] (setting [11]); 32 µg/mL (≈ 76.4 µM) in assay [8] (setting [11]); over 64 µg/mL in [9] (setting [11]); 32 µg/mL (≈ 76.4 µM) in assay [10].
With `OC(c1ccc(Cl)cc1Cl)C(Oc1ccc(-c2ccccc2)cc1)n1cncn1` (stereo not shown) [Compound 15], the “Infection in % of the untreated control” value in assay [1] was 37.5%. In addition, the “Infection in % … of 0.00025%” value in assay [4] is given as 12%. In addition, the MIC is under 1 µg/mL in assay [5] (setting [11]); over 64 µg/mL in assay [6] (setting [11]); 32 µg/mL (≈ 75.1 µM) in assay [7] (setting [11]); under 1 µg/mL in assay [8] (setting [11]); over 64 µg/mL in [9] (setting [11]); 1 µg/mL (≈ 2.35 µM) in assay [10].
Turning to `OC(c1ccc(Cl)cc1Cl)C(Oc1ccc(-c2ccc(Cl)cc2)cc1)n1cncn1` (stereo not shown) [Compound 16], in assay [1], the “Infection in % of the untreated control” value turned out to be 37.5%. The MIC was under 1 µg/mL in assay [5] (setting [11]); over 64 µg/mL in assay [6] (setting [11]); 8 µg/mL (≈ 17.4 µM) in [7] (setting [11]); 4 µg/mL (≈ 8.68 µM) in [8] (setting [11]); over 64 µg/mL in [9] (setting [11]); 1 µg/mL (≈ 2.17 µM) in assay [10].
On to `CC(C)(C)C(=O)C(Oc1ccc(Cl)cc1)n1cncn1` (stereo not shown) [D, reference compound], for which the “Infection in % … of 0.001%” value in [3] is listed as 42%. Moreover, the MIC in assay [5] is 4 µg/mL (≈ 13.6 µM); in assay [6], 100 µg/mL (≈ 340 µM); in assay [7], 40 µg/mL (≈ 136 µM); in assay [8] it was 100 µg/mL (≈ 340 µM); in assay [9], over 100 µg/mL.
For `CC(C)(C)C(O)C(Oc1ccc(-c2ccccc2)cc1)n1cncn1` (stereo not shown) [E, reference compound], the “Infection in % … of 0.00025%” value in assay [4] was 62%.
Take `CC(C)(C)C(=O)C(Oc1ccc(Cl)cc1Cl)n1cncn1` (stereo not shown) [F, reference compound]: the MIC is 4 µg/mL (≈ 12.2 µM) in assay [5] (setting [11]); 100 µg/mL (≈ 305 µM) in [6] (setting [11]); 40 µg/mL (≈ 122 µM) in assay [7] (setting [11]); 100 µg/mL (≈ 305 µM) in assay [8] (setting [11]); over 100 µg/mL in [9] (setting [11]).
`O=C(c1ccc(Cl)cc1)C(Oc1ccc(Cl)cc1Cl)n1cncn1` (stereo not shown) [G, reference compound]: the MIC in [9] (setting [11]) was over 100 µg/mL.
In the case of `COC(=O)c1ccc(OC(C(O)C(C)(C)C)n2cncn2)cc1` (stereo not shown) [H, reference compound], the MIC in assay [5] (setting [11]) is 4 µg/mL (≈ 12.5 µM); in assay [6] (setting [11]), over 64 µg/mL; in assay [7] (setting [11]) it was 64 µg/mL (≈ 200 µM); in assay [8] (setting [11]), 64 µg/mL (≈ 200 µM); in assay [9] (setting [11]), over 64 µg/mL.
In the case of `OC(c1ccccc1)C(Oc1ccc(Cl)cc1)n1cncn1` (stereo not shown) [K, reference compound], the MIC was 64 µg/mL (≈ 203 µM) in [5] (setting [11]), 64 µg/mL (≈ 203 µM) in assay [7] (setting [11]) and over 64 µg/mL in [9] (setting [11]).

For the origin of these results see US4284639A, “Combating fungi with 1-phenoxy-2-(2,4-dichlorophenyl)-1-(1,2,4-triazol-1-yl)-ethan-2-ones and -ols” (Bayer Aktiengesellschaft, priority 1977, dated 1981).
